Laboratory results from patent US6391888B1, “Topical anesthetics useful for treating cancer” (Mayo Foundation for Medical Education and Research, priority 1999, dated 2002).

Columns and labels:
[1] = test system: calcium-activated, phospholipid-dependent protein kinase (PKC); conditions: data suggesting; M. K. Tomoda et al., 1990; cited from earlier work
[2] = biological target: PKCδ (Homo sapiens, UniProt Q05655); experiment: lidocaine binding to and modulation of PKCδ (applicant's discovery, no method given); type: biochemical; conditions: calcium independent PKC isozyme PKCδ; qualitative statement
PKCδ, sequence (Q05655 whole entry): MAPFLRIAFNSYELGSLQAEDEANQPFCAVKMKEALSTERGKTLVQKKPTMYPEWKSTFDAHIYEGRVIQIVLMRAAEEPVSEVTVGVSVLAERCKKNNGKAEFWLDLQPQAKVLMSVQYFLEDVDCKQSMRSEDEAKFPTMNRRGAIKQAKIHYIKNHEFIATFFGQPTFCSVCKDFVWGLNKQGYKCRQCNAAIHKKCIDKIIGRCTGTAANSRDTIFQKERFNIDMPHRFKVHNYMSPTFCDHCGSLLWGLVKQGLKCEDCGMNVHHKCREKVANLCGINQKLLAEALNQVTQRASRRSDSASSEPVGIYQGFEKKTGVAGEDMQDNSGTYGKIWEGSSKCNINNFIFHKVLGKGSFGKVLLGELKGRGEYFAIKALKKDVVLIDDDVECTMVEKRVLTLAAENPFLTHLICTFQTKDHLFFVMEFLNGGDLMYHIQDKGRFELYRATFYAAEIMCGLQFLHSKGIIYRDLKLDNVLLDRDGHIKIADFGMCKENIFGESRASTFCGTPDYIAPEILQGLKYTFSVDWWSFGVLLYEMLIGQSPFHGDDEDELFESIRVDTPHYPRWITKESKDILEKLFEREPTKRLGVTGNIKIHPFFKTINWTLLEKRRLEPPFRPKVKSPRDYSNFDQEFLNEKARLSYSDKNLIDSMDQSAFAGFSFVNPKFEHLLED

For `CCN(CC)CC(=O)Nc1c(C)cccc1C` [lidocaine, (2-diethylamino)-N-(2,6-dimethylphenyl)-acetamide], the “inhibition of calcium-activated, phospholipid-dependent protein kinase (PKC)” value [1] is given as “inhibits” and the “binding to and modulation of the effects of PKCδ” value [2] is given as “binds to and modulates (e.g. inhibits)”.
